{
  "source": "patent US20240285656A1",
  "about": "“CANNABIDIOL (CBD) AND TERPENE F[…] INCREASES RESTORATIVE SLEEP IN HUMANS” (Defined Research, Inc., priority 2022, published 2024)",
  "key": {"[1]": {"conditions": "cited from earlier work"}, "[2]": {"conditions": "rodents; cited from earlier work"}, "[3]": {"conditions": "after one week of dosing; effect blocked by flumazenil; cited from earlier work"}, "[4]": {"conditions": "preclinical data; cited from earlier work"}, "GABAA receptor [5]": {"system": "GABAA receptor", "conditions": "cited from earlier work; for GABAA receptor activity in cells: cell experiments"}, "GABAA receptor [6]": {"system": "GABAA receptor", "conditions": "cited from earlier work"}, "SSADH": {"biological_target": "T1, SSADH (Homo sapiens, UniProt P51649)", "T1 sequence (P51649 48-535)": "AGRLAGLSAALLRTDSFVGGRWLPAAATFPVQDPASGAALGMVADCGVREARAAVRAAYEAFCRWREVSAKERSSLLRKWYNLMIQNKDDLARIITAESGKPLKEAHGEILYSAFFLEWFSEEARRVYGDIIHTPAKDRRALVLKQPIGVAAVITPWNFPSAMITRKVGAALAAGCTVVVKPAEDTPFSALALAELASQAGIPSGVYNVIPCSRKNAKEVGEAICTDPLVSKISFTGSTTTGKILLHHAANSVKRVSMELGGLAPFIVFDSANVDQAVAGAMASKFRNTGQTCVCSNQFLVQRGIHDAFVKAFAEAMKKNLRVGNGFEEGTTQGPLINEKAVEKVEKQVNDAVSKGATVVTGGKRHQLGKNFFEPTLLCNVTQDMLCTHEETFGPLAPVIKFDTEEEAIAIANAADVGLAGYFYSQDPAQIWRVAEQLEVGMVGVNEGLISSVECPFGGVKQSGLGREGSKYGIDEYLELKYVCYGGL", "conditions": "cited from earlier work"}, "[7]": {"assay": "Clinical study 1 (Le Rêve 1.0): sleep physiology by Whoop sleep-tracking wristband, double-blind placebo-controlled crossover", "type": "in vivo, humans", "conditions": "participant DR11; 7 days per treatment; relative to placebo", "method": "Two independent clinical studies were completed to determine the effects of the CBD formulation on the structure and function of sleep physiology. Each of these independent studies were performed as a double-blind, placebo-controlled, randomized, crossover investigational study to determine if the CBD formulation influences sleep physiology in humans.\nPrimary sleep physiology data was collected from study participants in a completely unbiased manner from a non-invasive sleep-tracking wristband, called “Whoop” (https://www.whoop.com), which electronically collects and transmits sleep data from study participants in the comfort of their own beds. The wristband collects hundreds of data points per second from a 3-axis accelerometer, 3-axis gyroscope, and heart rate sensor. The wristband can accurately measure latency to fall asleep, total sleep time, sleep fragmentation, as well as the time spent in each sleep stage [Light, Slow Wave (Deep), Rapid Eye Movement (REM), and Awake]. The wristband also collects data using photoplethysmography (PPG), a technique that involves measuring blood flow by assessing superficial changes in blood volume. Heart rate, heart rate variability, and respiratory rate, can all be derived from PPG data, and all of these metrics are used in Whoop's sleep detection and staging algorithms. […]"}, "[8]": {"assay": "Clinical study 1: sleep survey / Participant Global Impression (PGI) questionnaire", "type": "in vivo, humans", "conditions": "participant DR11; sleep survey at end of treatment period", "source_text": "FIG. 7 is a graph showing the Study Participants Perceived That the CBD formulation Helped Them Sleep Better [p=0.13; (t test). n=23 responders per treatment group. Values are means±SEM]. At the end of each treatment period, study participants used a PGI questionnaire to determine if the treatment influenced their sleep relative to a baseline period before the treatments were initiated. Scoring Matrix: 1=Treatment Helped; 2-No Effect of Treatment; 3-Treatment Worsened.\nIn the first study, participants (N=23) were randomized to take a placebo control or the CBD formulation stated as Defined CBD in the Figures (˜300 mg CBD, ˜8 mg terpenes including linalool, myrcene, phytol, limonene, α-terpinene, α-terpineol, α-pinene, and β-caryophyllene) once daily, one hour before bedtime, for seven consecutive nights. […] Indeed, on average, over seven days of treatment, participant DR11 benefitted from nearly an extra hour of restorative sleep each night relative to the placebo control (FIG. 2B). Furthermore, participant DR11 was also able to perceive an improvement in their sleep quality and duration relative to the placebo control when they responded to a clinically validated sleep survey at the end of the treatment periods (as shown in Table 1).\nAt the end of each treatment period in the clinical studies, participants completed a modified version of a clinically validated questionnaire entitled the Participant Global Impression (PGI)^28. PGI assessments are based on the participant's global perception of the effects of treatment on sleep during each treatment period, as compared to their sleep during the baseline period of the study. […] Nevertheless, based on post-hoc power analysis performed, this effect would achieve statistical significance with a larger sample number."}, "[9]": {"assay": "Clinical study 1: modified Hamilton Anxiety Rating Scale", "type": "in vivo, humans", "conditions": "responders n=10; placebo 15", "source_text": "FIGS. 8A-8C are graphs showing the CBD formulation Decreasing Anxiety. At the end of each treatment period, study participants completed a clinically-validated survey entitled the Hamilton Anxiety Rating Scale^29. Each item in this rating scale is scored on a scale of 0 (not present) to 4 (severe), with a total score range of 0-53, where <14 indicates mild severity, 15-21 mild to moderate severity, and 22-27 moderate to severe. Based on this survey, the CBD formulation decreases anxiety in participants DR13 (FIG. 8A), DR16 (FIG. 8B), and DR21 (FIG. 8C) relative to the placebo control or CBD alone.\nFIG. 9A is a graph showing the CBD formulation decreases Anxiety in “Responders”. […] Each item in this rating scale is scored on a scale of 0 (not present) to 4 (severe), with a total score range of 0-53, where <14 indicates mild severity, 15-21 mild to moderate severity, and 22-27 moderate to severe. […]\nTo measure the effects of the CBD formulation on anxiety, study participants completed a modified version of the Hamilton Anxiety Rating Scale, one of the first rating scales developed to measure the severity of anxiety symptoms that is widely used in clinical and research settings^29. […] Each item is scored on a scale of 0 (not present) to 4 (severe), with a total score range of 0-53, where <14 indicates mild severity, 15-21 mild to moderate severity, and 22-27 moderate to severe."}, "[10]": {"conditions": "given before simulation public speaking test; vs placebo; cited from earlier work"}},
  "data": [
    {"compound": "CCCCCc1cc(O)c2c(c1)OC(C)(C)[C@@H]1CCC(C)=C[C@@H]21", "note": "[THC, tetrahydrocannabinol]", "values": [
      {"measurement": "anxiety-promoting properties in clinical studies", "setting": "[1]; in vivo", "value": "anxiogenic"}
    ]},
    {"compound": "C=C(C)C1CC=C(C)CC1", "note": "(centres unmarked) [limonene, 1-methyl-4-prop-1-en-2-ylcyclohexene]", "values": [
      {"measurement": "locomotor activity", "setting": "[2]", "value": "reduced"},
      {"measurement": "motor coordination", "setting": "[2]", "value": "impaired"},
      {"measurement": "sleep", "setting": "[2]", "value": "induced sleep"},
      {"measurement": "brain GABA levels", "setting": "[3]", "value": "increased"},
      {"measurement": "sedation in animals", "setting": "[4]", "value": "induce sedation"}
    ]},
    {"compound": "C=CC(C)(O)CCC=C(C)C", "note": "(centres unmarked) [linalool]", "values": [
      {"measurement": "GABAA receptor activity in cells", "setting": "GABAA receptor [5]", "value": "significantly augment"},
      {"measurement": "binding to the GABA site or the benzodiazepine site of the GABAA receptor", "setting": "GABAA receptor [6]", "value": "does not bind"},
      {"measurement": "sleep", "setting": "[2]", "value": "increases sleep"},
      {"measurement": "sedation in animals", "setting": "[4]", "value": "induce sedation"}
    ]},
    {"compound": "C=CC(=C)CCC=C(C)C", "note": "[myrcene, 7-methyl-3-methylene-1,6-octadiene]", "values": [
      {"measurement": "GABAA receptor activity in cells", "setting": "GABAA receptor [5]", "value": "increased"},
      {"measurement": "sedation in animals", "setting": "[4]", "value": "induce sedation"}
    ]},
    {"compound": "C/C(=C\\CO)CCC[C@H](C)CCC[C@H](C)CCCC(C)C", "note": "[phytol, (2E,7R,11R)-3,7,11,15-Tetramethylhexadec-2-en-1-ol]", "values": [
      {"measurement": "inhibition of SSADH", "setting": "SSADH", "value": "inhibiting"},
      {"measurement": "sedative effects blocked by flumazenil", "setting": "[2]", "value": "blocked"},
      {"measurement": "sedation in animals", "setting": "[4]", "value": "induce sedation"}
    ]},
    {"compound": "CC1=CCC2CC1C2(C)C", "note": "(stereo not drawn) [α-pinene, 2,6,6-trimethylbicyclo[3.1.1]hept-2-ene]", "values": [
      {"measurement": "GABAA receptor activity in cells", "setting": "GABAA receptor [5]", "value": "increased"},
      {"measurement": "effect in neurons blocked by flumazenil", "setting": "GABAA receptor [5]; neurons, flumazenil (benzodiazepine site antagonist)", "value": "fully blocked"},
      {"measurement": "sedative effects blocked by flumazenil", "setting": "[2]", "value": "blocked"},
      {"measurement": "sedation in animals", "setting": "[4]", "value": "induce sedation"}
    ]},
    {"compound": "CC1=CC=C(C(C)C)CC1", "note": "[α-terpinene, 1-methyl-4-propan-2-ylcyclohexa-1,3-diene]", "values": [
      {"measurement": "sedation in animals", "setting": "[4]", "value": "induce sedation"}
    ]},
    {"compound": "CC1=CCC(C(C)(C)O)CC1", "note": "(stereo not drawn) [α-terpineol, 2-(4-methylcyclohex-3-en-1-yl)propan-2-ol]", "values": [
      {"measurement": "GABAA receptor activity in cells", "setting": "GABAA receptor [5]", "value": "increase"},
      {"measurement": "sedation in animals", "setting": "[4]", "value": "induce sedation"}
    ]},
    {"compound": "C=C1CC/C=C(\\C)CC[C@@H]2[C@@H]1CC2(C)C", "note": "[β-caryophyllene]", "values": [
      {"measurement": "locomotor activity", "setting": "[2]", "value": "did not affect"},
      {"measurement": "motor coordination", "setting": "[2]", "value": "did not affect"},
      {"measurement": "sleep", "setting": "[2]", "value": "mildly promote sleep"},
      {"measurement": "sedation in animals", "setting": "[4]", "value": "induce sedation"}
    ]},
    {"compound": "cannabidiol [CBD alone]", "values": [
      {"measurement": "increase in percentage of time spent in REM sleep", "setting": "[7]", "value": "about 4%"},
      {"measurement": "increase in percentage of time spent in restorative sleep", "setting": "[7]", "value": "about 2%"},
      {"measurement": "Decreased Sleep Onset", "setting": "[8]", "value": "No"},
      {"measurement": "Improved Sleep", "setting": "[8]", "value": "No"},
      {"measurement": "Lengthened Sleep Duration", "setting": "[8]", "value": "No"},
      {"measurement": "Hamilton Anxiety Rating Scale score", "setting": "[9]", "value": 11},
      {"measurement": "anxiety, cognitive impairment and discomfort", "setting": "[10]", "value": "significantly reduced"},
      {"measurement": "hyper-alertness in anticipatory speech", "setting": "[10]", "value": "significantly decreased"},
      {"measurement": "block of the anxiogenic effects of THC", "setting": "[1]; clinical studies", "value": "can be blocked"}
    ]}
  ]
}
